What is called logD is lipophilicity at a set pH, counting ionised and neutral species. Low readings indicate a more hydrophilic compound, high ones a more lipophilic compound.

The subject of data set [1] is Escherichia coli. Description: microbe, parasite or virus in culture. To be noted: JW5503-1, 20 h.
Description: Antibacterial activity against tolC deficient Escherichia coli JW5503-1 after 20 hrs by broth microdilution method
The test system of data set [2] is Escherichia coli. Description: microbe, parasite or virus in culture. To be noted: BW25113, 20 h.
Description: Antibacterial activity against Escherichia coli BW25113 after 20 hrs by broth microdilution method
A further data set can be described thus: physchem. Particulars: buffer, pH 7.4.

Converted amounts (≈) assume the structure as drawn. A value given as a limit tells only on which side of the number the result lay.

Description for physchem: Lipophilicity, log D of the compound at pH 7.4

`COC(=O)N1CCC(O)(Cc2cccc([C@@H](CC#N)Nc3nc4nc(C)ccc4[nH]3)c2)CC1`: the MIC was 2 µg/mL (≈ 4.46 µM) against Escherichia coli [1] and > 128 µg/mL against Escherichia coli [2]. This compound also showed a logD in “physchem” of 2.1.
The matching figures for `Cc1cc(NC[C@@H](N)C2CC2)n2nc(N[C@H](CC#N)c3cccc(Cl)c3)nc2n1`: 8 µg/mL (≈ 19.5 µM), > 128 µg/mL and 1.3.
The matching figures for `Cc1cc(NC[C@@H](N)c2ccsc2)n2nc(N[C@H](CC#N)c3cccc(Cl)c3)nc2n1`: 1 µg/mL (≈ 2.21 µM), 64 µg/mL (≈ 141 µM) and 3.
With `COC(=O)N1CCC(CCC#N)(Cc2cccc([C@@H](CC#N)Nc3nc4nc(C)ccc4[nH]3)c2)CC1`, the MIC with Escherichia coli [1] is 0.5 µg/mL (≈ 1.03 µM); against Escherichia coli [2] it was > 128 µg/mL.
For the compound `COC(=O)N1CCC(CO)(Cc2cccc([C@@H](CC#N)Nc3nc4nc(C)ccc4[nH]3)c2)CC1`, the MIC was 1 µg/mL (≈ 2.16 µM) in the data set with Escherichia coli [1] and > 128 µg/mL against Escherichia coli [2].
For the compound `Cc1cc(NC[C@@H](N)c2cccs2)n2nc(N[C@H](CC#N)c3cccc(Cl)c3)nc2n1`, the results for the MIC in the data set with Escherichia coli [1] and in the data set on Escherichia coli [2] were 0.25 µg/mL (≈ 0.552 µM) and 64 µg/mL (≈ 141 µM), respectively. Also, the logD in “physchem” worked out at 3.3.
As to `Cc1cc(NC[C@@H](N)c2ccc(F)cc2)n2nc(N[C@H](CC#N)c3cccc(Cl)c3)nc2n1`, the figures for the MIC in the data set with Escherichia coli [1] and against Escherichia coli [2] were 0.5 µg/mL (≈ 1.08 µM) and 64 µg/mL (≈ 138 µM), respectively.
For `Cc1cc(=O)n2nc(N[C@H](C)c3cccc(Cl)c3)nc2[nH]1`, in the data set with Escherichia coli [1], the MIC is > 128 µg/mL.
In the case of `Cc1cc(NC[C@@H](N)c2cccc(F)c2)n2nc(N[C@H](CC#N)c3cccc(Cl)c3)nc2n1`, the MIC in the data set on Escherichia coli [1] amounted to 0.25 µg/mL (≈ 0.538 µM); with Escherichia coli [2], 64 µg/mL (≈ 138 µM). For the same compound, the log distribution coefficient (logD) in “physchem” is 3.7.
With `COC(=O)N1CCC(CCC(=O)O)(Cc2cccc([C@@H](CC#N)Nc3nc4nc(C)ccc4[nH]3)c2)CC1`, the figures for the MIC in the data set on Escherichia coli [1] and against Escherichia coli [2] were 0.5 µg/mL (≈ 0.991 µM) and > 128 µg/mL, respectively.
The matching figures for `COC(=O)N1CCC(CCCO)(Cc2cccc([C@@H](CC#N)Nc3nc4nc(C)ccc4[nH]3)c2)CC1`: 0.25 µg/mL (≈ 0.51 µM) and > 128 µg/mL.
Regarding `COC(=O)N1CCC(Sc2cccc([C@@H](CC#N)Nc3nc4nc(C)ccc4[nH]3)c2)CC1`, the MIC with Escherichia coli [1] stood at 0.06 µg/mL (≈ 0.133 µM); with Escherichia coli [2], 64 µg/mL (≈ 142 µM). In “physchem”, this compound gave a logD of 3.7.
For the compound `CC(=O)N1CCc2cc(Nc3cc(C)nc4nc(N[C@H](C)c5cccc(Cl)c5)nn34)ccc21`, the MIC is 0.125 µg/mL (≈ 0.271 µM) against Escherichia coli [1] and > 128 µg/mL against Escherichia coli [2]. The compound also had a logD in “physchem” of 4.6.
In the case of `Cc1cc(NC[C@@H](N)c2cccnc2)n2nc(N[C@H](CC#N)c3cccc(Cl)c3)nc2n1`, the MIC is 4 µg/mL (≈ 8.93 µM) in the data set with Escherichia coli [1] and > 128 µg/mL against Escherichia coli [2]. This compound displayed a logD in the data set “physchem” of 2.3.
Compound `COC(=O)N1CCN(Cc2cccc([C@@H](CC#N)Nc3nc4nc(C)ccc4[nH]3)c2)C(=O)C1` had a logD in the data set “physchem” of 1.4.
As to `Cc1cc(NC[C@@H](N)c2nccn2C)n2nc(N[C@H](CC#N)c3cccc(Cl)c3)nc2n1`, the values for the MIC with Escherichia coli [1] and against Escherichia coli [2] were 4 µg/mL (≈ 8.87 µM) and > 128 µg/mL, respectively.
On the same counts, the results for `Cc1cc(N2CC(N(C)C)C2)n2nc(N[C@H](C)c3cccc(Cl)c3)nc2n1` are > 128 µg/mL and > 128 µg/mL.
On to `Cc1cc(Nc2ccc(C)c(Cl)c2)n2nc(Cc3ccccc3)nc2n1`, for which the logD in “physchem” is > 5.
As for `COC(=O)N1CCC(CNCCO)(Cc2cccc([C@@H](CC#N)Nc3nc4nc(C)ccc4[nH]3)c2)CC1`, the MIC against Escherichia coli [1] is 32 µg/mL (≈ 63.3 µM); against Escherichia coli [2] it was > 128 µg/mL.
As to `COc1ccc(Oc2cccc([C@@H](C)Nc3nc4[nH]c(C)cc(=O)n4n3)c2)cc1`, the MIC in the data set with Escherichia coli [1] was determined as 64 µg/mL (≈ 164 µM).
Consider `COC(=O)N1CC[C@H](Cc2cccc([C@@H](CC#N)Nc3nc4nc(C)ccc4[nH]3)c2)C1`, for which the results for the MIC with Escherichia coli [1] and in the data set on Escherichia coli [2] were 0.125 µg/mL (≈ 0.299 µM) and 64 µg/mL (≈ 153 µM), respectively.
For `COC(=O)c1ccc(Oc2cccc([C@@H](CC#N)Nc3nc4[nH]c(C)cc(=O)n4n3)c2)cc1`, the MIC in the data set on Escherichia coli [1] turned out to be 2 µg/mL (≈ 4.5 µM). This compound displayed a logD in the data set “physchem” of 2.
On to `Cc1cc(NC[C@@H](N)c2c(C)noc2C)n2nc(N[C@H](CC#N)c3cccc(Cl)c3)nc2n1`, for which the MIC was 1 µg/mL (≈ 2.15 µM) against Escherichia coli [1] and > 128 µg/mL against Escherichia coli [2].

These data come from ChEMBL document CHEMBL4043292, “Discovery and Optimization of Phosphopantetheine Adenylyltransferase Inhibitors with Gram-Negative Antibacterial Activity” (J Med Chem, 2018).
